This note sets out measurements from PubChem BioAssay (NCI).

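How tested: cells in 96-well plates exposed to compound for 48 hours at five concentrations. TGI is the concentration that stops growth completely.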 A value given as a limit tells only on which side of the number the result lay.

Some test systems named below: M14 melanoma; COLO 205 colon; A498 renal; SR leukemia; CCRF-CEM leukemia; BT-549 breast; KM12 colon; OVCAR-8 ovarian; HCC-2998 colon; MALME-3M melanoma.
Holding throughout (test): inhibition of tumour cell growth, NCI panel, 48 h

As to `O=[N+]([O-])c1cc(F)ccc1Sc1ccccc1`, the TGI in the experiment with M14 melanoma, in the experiment with COLO 205 colon, with A498 renal, in the experiment with SR leukemia, with CCRF-CEM leukemia and with BT-549 breast was greater than 10 µM throughout. Moreover, the TGI in the experiment on KM12 colon, in the experiment with OVCAR-8 ovarian, in the experiment on HCC-2998 colon and in the experiment with MALME-3M melanoma was greater than 10 µM in each case.

Turning to `C=CCc1ccccc1C1CC2(C(=O)OC)OC1C(C(=O)OC)=C2C(=O)OC` (stereo not given), the TGI with M14 melanoma, in the experiment on COLO 205 colon, in the experiment with A498 renal, with SR leukemia, in the experiment with CCRF-CEM leukemia and with BT-549 breast was greater than 10 µM throughout. In addition, the TGI in the experiment on KM12 colon, in the experiment with OVCAR-8 ovarian, in the experiment on HCC-2998 colon and in the experiment on MALME-3M melanoma was greater than 10 µM each time.

Take `NC(=S)N/N=C1\CCCC1C(O)(C(F)(F)Cl)C(F)(F)Cl` (stereo not given): the TGI with M14 melanoma, in the experiment with COLO 205 colon, with A498 renal, in the experiment with SR leukemia, in the experiment on CCRF-CEM leukemia and in the experiment with BT-549 breast was greater than 10 µM each time. The TGI with KM12 colon, in the experiment on OVCAR-8 ovarian, with HCC-2998 colon and in the experiment on MALME-3M melanoma was greater than 10 µM throughout.

On to `CCN(CC)C1Oc2cc3c(cc2C(c2cc(OC)c(OC)c(OC)c2)C1C)OCO3` (stereo not given), for which the TGI with M14 melanoma was greater than 37.9 µM; with COLO 205 colon, 4.8 µM; in the experiment with A498 renal, 6.65 µM; in the experiment with SR leukemia, 5.01 µM; with CCRF-CEM leukemia, greater than 22.9 µM; in the experiment with BT-549 breast, greater than 58.4 µM. Further, the TGI is 30.7 µM in the experiment with KM12 colon, greater than 43.2 µM in the experiment on OVCAR-8 ovarian, 19.8 µM in the experiment with HCC-2998 colon and greater than 64 µM in the experiment on MALME-3M melanoma.

As for `COc1cc2c(c(OC)c1)C(=O)O[C@H](C)CCCC/C=C/C2`, the TGI in the experiment on M14 melanoma was greater than 32.2 µM; in the experiment with COLO 205 colon, 31.8 µM; with A498 renal it was greater than 100 µM; in the experiment on SR leukemia, greater than 100 µM; in the experiment on CCRF-CEM leukemia it was greater than 100 µM; in the experiment on BT-549 breast, greater than 35.1 µM. For the same compound, the TGI was greater than 35.2 µM in the experiment with KM12 colon, greater than 100 µM in the experiment on OVCAR-8 ovarian, greater than 32.9 µM in the experiment with HCC-2998 colon and 31.3 µM in the experiment on MALME-3M melanoma.

Consider `O=c1[nH]c2cc([N+](=O)[O-])c(Nc3c4ccccc4nc4ccccc34)c([N+](=O)[O-])c2[nH]1`, for which the TGI was 5.14 µM with M14 melanoma; 6.97 µM with COLO 205 colon; 6.86 µM with A498 renal; 4.36 µM in the experiment on SR leukemia; 24.3 µM in the experiment on CCRF-CEM leukemia; 23 µM with BT-549 breast. Also, the TGI in the experiment on KM12 colon is 10.9 µM; in the experiment on OVCAR-8 ovarian, 16.3 µM; in the experiment with HCC-2998 colon, 5.75 µM; with MALME-3M melanoma, 5.09 µM.

Regarding `Cn1ccc2c(c1=O)C(=O)OC2(C)C`, the TGI with M14 melanoma, with COLO 205 colon, in the experiment with A498 renal, with SR leukemia, in the experiment on CCRF-CEM leukemia and in the experiment on BT-549 breast was greater than 100 µM throughout. Moreover, the TGI with KM12 colon, with OVCAR-8 ovarian, in the experiment on HCC-2998 colon and in the experiment on MALME-3M melanoma was greater than 100 µM each time.

Consider `Cc1ccc(NC2=N/C(=C/c3ccco3)C(Cl)=N2)cc1`, for which the TGI in the experiment with M14 melanoma, in the experiment on COLO 205 colon, in the experiment with A498 renal, with SR leukemia, with CCRF-CEM leukemia and in the experiment with BT-549 breast was greater than 100 µM each time. In addition, the TGI with KM12 colon is greater than 100 µM; in the experiment with OVCAR-8 ovarian, greater than 100 µM; with HCC-2998 colon, greater than 49.7 µM; in the experiment on MALME-3M melanoma it was greater than 100 µM.

`O=C(O)CCSC1=NCCN1`: the TGI in the experiment with M14 melanoma, with COLO 205 colon, in the experiment on A498 renal, in the experiment with SR leukemia, in the experiment on CCRF-CEM leukemia and in the experiment with BT-549 breast was greater than 100 µM throughout. For the same compound, the TGI in the experiment on KM12 colon, in the experiment with OVCAR-8 ovarian, with HCC-2998 colon and in the experiment with MALME-3M melanoma was greater than 100 µM throughout.

On to `C=CCOC1(CC=C)C(=O)OC2C(O)COC21O` (stereo not given), for which the TGI in the experiment on M14 melanoma, with COLO 205 colon, with A498 renal, in the experiment with SR leukemia, with CCRF-CEM leukemia and with BT-549 breast was greater than 100 µM in each case. Besides, the TGI in the experiment with KM12 colon, in the experiment on OVCAR-8 ovarian, in the experiment on HCC-2998 colon and in the experiment with MALME-3M melanoma was greater than 100 µM each time.

For `COc1ccc2c(c1)C(=O)C1CCC(=O)N1C2c1ccc2c(c1)OCO2` (stereo not given), the TGI in the experiment on M14 melanoma was 29 µM; in the experiment with COLO 205 colon, 25.7 µM; with A498 renal, 38.1 µM; with SR leukemia, greater than 100 µM; in the experiment on CCRF-CEM leukemia it was 13.3 µM; in the experiment on BT-549 breast, 11.6 µM. Moreover, the TGI in the experiment with KM12 colon was 22.2 µM; in the experiment on OVCAR-8 ovarian, 44.2 µM; with HCC-2998 colon, 28 µM; in the experiment with MALME-3M melanoma it was 15.9 µM.

For the compound `CNC(=O)N(CCC#N)CCCN(C(=O)N(C)C)c1ccccc1`, the TGI in the experiment on M14 melanoma, with COLO 205 colon, with A498 renal, in the experiment with SR leukemia, in the experiment with CCRF-CEM leukemia and with BT-549 breast was greater than 100 µM in each case. The TGI in the experiment with KM12 colon, in the experiment on OVCAR-8 ovarian, in the experiment on HCC-2998 colon and with MALME-3M melanoma was greater than 100 µM in each case.

Consider `COC(=O)C1CC23C=CCN4CC(C2C)C2(c5ccccc5NC12)C43` (stereo not given), for which the TGI with M14 melanoma, in the experiment on COLO 205 colon, with A498 renal, in the experiment with SR leukemia, in the experiment with CCRF-CEM leukemia and in the experiment on BT-549 breast was greater than 100 µM each time. In addition, the TGI in the experiment with KM12 colon, in the experiment on OVCAR-8 ovarian, with HCC-2998 colon and in the experiment with MALME-3M melanoma was greater than 100 µM each time.
